Patent US10449221B2, “Differentiation of stem cells into thyroid tissue” (TRUSTEES OF BOSTON UNIVERSITY, priority 2015, dated 2019)

Tests used:
hypothyroid mice = assay: TSH response test; type: in vivo, mouse; conditions: T3 4 μg per 100 g body weight i.p. daily for 4 days; all groups; data not shown
Experimental: To suppress endogenous production of T4 and TSH, T3 (4 μg per 100 g body weight (BW); Sigma T6397) was given daily by intraperitoneal injection for 4 days. 15 hours after the last injection, blood was taken from the submandibular vein to measure T4 and TSH after which a single injection of highly purified bTSH (Los Angeles Biomedical Research Institute, National Hormone and Peptide Program. Torrance, Calif.) at 30 mU per 100 g BW was given. 3 hours later blood samples were taken to assess the increase of total T4. Five mice per group (positive control group, Sham, and D30 ESCs recipients) were included in the experiment.

[1] = test system: ESC-derived definitive endoderm; assay: Nkx2-1+ endoderm induction from ESC-derived endoderm, specification media day 6-14, flow cytometry on day 14; type: cell-based, mouse; conditions: sequential withdrawal of each individual factor from the WFKBE+2 cocktail
Experimental: Definitive endoderm induction was performed in complete serum-free differentiation medium (cSFDM) consisting of 75% IMDM (Invitrogen 12440) and 25% Ham's Modified F12 medium (Cellgro 10-080-CV) supplemented with N2 and B27+RA (Invitrogen 17502-048 and 17504-44), 0.05% BSA (Invitrogen 15260-037), […] L-glutamine (Invitrogen 25030-081), 0.05 mg/ml ascorbic acid (Sigma A4544) and 4.5×10^-4M MTG (Sigma M6145) as previously described (Gouon-Evans et al., 2006, Longmire et al., 2012). Undifferentiated ESCs were trypsinized to form a single cell suspension and plated onto Petri dishes (500,000 cells/10 cm dish) resulting in the formation of embryoid bodies (EBs) over 60 hours. EBs were dissociated by trypsinization (0.05%, 1 min, 37° C.) and plated as single cells into cSFDM supplemented with 50 ng/ml Activin A (R&D systems 338-AC) for an additional 60 hours. For Anteriorization of endoderm, on day 5 (120 total hours of differentiation) EBs were plated onto p100 Petri dishes in Nog/SB media: cSFDM supplemented with 100 ng/ml mNoggin (R&D 1967-NG) and 10 μM SB431542 (Sigma S4317) as previously described (Longmire et al., 2012). For Nkx2-1+ endoderm induction, EBs were plated on gelatin coated 6 well plates at the equivalent density of 200,000 cells/well in Specification media: cSFDM supplemented as stated in the text with 100 ng/ml mWnt3a (R&D 1324-WN), 10 ng/ml hFGF10 (R&D 345-FG), 10 ng/ml mKGF (R&D 5028-KG), 10 ng/ml mBMP4 (R&D 5020-BP), 20 ng/ml hEGF (R&D 236-EG), 250 ng/ml mFGF2 (R&D 3139-FB) and 100 ng/ml Heparin Sodium Salt (Sigma […]2-1mCherry+ cells, or the populations otherwise indicated in the text were sorted using MoFlo or […] II SORP high speed cell sorters and replated onto gelatin-coated 24 well plates on day 12-14 at a density of 5×10^4 cells/well. Where indicated in the text, small molecule inhibitors were dissolved in DMSO according to manufacturer's instructions and added to the culture media from day 6 to 14 at the following working concentrations: Dorsomorphin 4 μM (Sigma P5499), PD98059 20 μM, SB203580 10 μM (both from Cell Signaling Technology, PHZ1164 and 5633), and LY294002 […] (Promega V1201).

[2] = test system: ESC-derived Nkx2-1+ cells; assay: Thyroid marker mRNA by real time RT-PCR on Day 26 after outgrowth of day 14 sorted Nkx2-1+ cells; type: cell-based, mouse; conditions: growth factors in specification media day 6 to 14; sorted day 14, replated until day 26
Experimental: For Anteriorization of endoderm, on day 5 (120 total hours of differentiation) EBs were plated onto p100 Petri dishes in Nog/SB media: cSFDM supplemented with 100 ng/ml mNoggin (R&D 1967-NG) and 10 μM SB431542 (Sigma S4317) as previously described (Longmire et al., 2012). For Nkx2-1+ endoderm induction, EBs were plated on gelatin coated 6 well plates at the equivalent density of 200,000 cells/well in Specification media: cSFDM supplemented as stated in the text with 100 ng/ml mWnt3a (R&D 1324-WN), 10 ng/ml hFGF10 (R&D 345-FG), 10 ng/ml mKGF (R&D 5028-KG), 10 ng/ml mBMP4 (R&D 5020-BP), 20 ng/ml hEGF (R&D 236-EG), 250 ng/ml mFGF2 (R&D 3139-FB) and 100 ng/ml Heparin Sodium Salt (Sigma […]2-1mCherry+ cells, or the populations otherwise indicated in the text were sorted using MoFlo or […] II SORP high speed cell sorters and replated onto gelatin-coated 24 well plates on day 12-14 at a density of 5×10^4 cells/well. […] Relative gene expression, normalized to 18S control, was calculated as fold change in 18S-normalized gene expression, over baseline, using the 2^(-ΔΔCT) method. […]

[3] = test system: Nkx2-1GFP+; Pax8tdTomato trace+ iPSC-derived cells; assay: Lineage specification of bifluorescent reporter iPSC line by day 14; type: cell-based, mouse; conditions: factor withdrawn or removed from the Nkx2-1 induction media, data not shown

| Molecule | endogenous TSH and T4 after exogenous T3 (hypothyroid mice) | Nkx2-1+ endodermal induction efficiency [1] | thyroid competence, thyroid marker mRNA on D26 [2] | efficiency of lineage specification, percent yield of GFP+/tdTomato+ cells [3] |
| --- | --- | --- | --- | --- |
| N[C@@H](Cc1cc(I)c(Oc2ccc(O)c(I)c2)c(I)c1)C(=O)O [T3, Triiodothyronine] | TSH suppression and abrogated T4 secretion | – | – | – |
| Wingless-Type MMTV Integration Site Family protein, member 3A [Wnt3a] | – | dispensable for Nkx2-1 induction efficiency | does not alter thyroid lineage specification | no significant impact |
